We go through nine molecules from patent publication US10316021B2, “Heteroarylphenoxy benzamide kappa opioid ligands” (Pfizer Inc., priority 2016, dated 2019).

Series [1] addresses T1, human kappa opioid receptor (hKOR) (Homo sapiens, UniProt P41145).
T1 construct: expressed in transfected cells; host or cells: CHO cells
The experiment in a line: Kappa radioligand binding assay ([3H]diprenorphine, CHO cell membranes). The settings on record: for Selectivity hMOR/hKOR: selectivity ratio calculated by dividing the hMOR Ki by the hKOR Ki. The essentials: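 Membranes from CHO cells expressing human kappa receptor incubated 1 h at room temperature with compound and 0.6 nM [3H]diprenorphine in 50 mM Tris pH 7.4, 1 mM EDTA, 5 mM MgCl2. Nonspecific binding defined with 10 μM naltrexone; filtration, scintillation counting; IC50 from 4-parameter fit converted to Ki via Cheng-Prusoff.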

Series [2] deals with T2, human mu opioid receptor (hMOR) (Homo sapiens, UniProt P35372).
T2 construct: expressed in transfected cells; host or cells: CHO cells
T2 sequence (P35372 whole entry): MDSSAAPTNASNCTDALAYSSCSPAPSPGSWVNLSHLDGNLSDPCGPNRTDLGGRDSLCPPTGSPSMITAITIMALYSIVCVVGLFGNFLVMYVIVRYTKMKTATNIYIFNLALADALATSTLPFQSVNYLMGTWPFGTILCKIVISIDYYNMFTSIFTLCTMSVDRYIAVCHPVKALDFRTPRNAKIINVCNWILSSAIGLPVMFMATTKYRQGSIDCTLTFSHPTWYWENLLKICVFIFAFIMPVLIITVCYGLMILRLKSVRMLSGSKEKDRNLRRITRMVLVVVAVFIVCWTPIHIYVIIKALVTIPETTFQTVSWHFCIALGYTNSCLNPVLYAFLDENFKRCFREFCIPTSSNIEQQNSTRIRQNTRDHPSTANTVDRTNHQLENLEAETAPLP
The experiment in a line: Mu radioligand binding assay ([3H]diprenorphine, CHO cell membranes). The settings on record: read-out: hMOR binding assay Ki. The procedure, abridged: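 Membranes from CHO cells expressing human mu receptor were incubated 1 h at room temperature with [3H]diprenorphine (0.5 nM final) in Tris pH 7.4 buffer with EDTA and MgCl2; naltrexone (10 μM) defined non-specific binding. Filter-bound radioactivity was counted; Ki derived by Cheng-Prusoff from IC50.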

Series [3] concerns THLE-2 (transformed human liver epithelial) cells. As to the kind of experiment: Transformed human liver epithelial (THLE) assay, ATP depletion 72 h. The series is classed as cell-based. Particulars: for cytotoxicity in THLE cell line, in words: cellular ATP; for IC50: Homo sapiens, read-out: THLE. The procedure:
Transformed Human Liver […] (THLE) Assay:
ATP depletion was measured after 72 hours of exposure to a particular concentration of the chemical. […] Cells were cultured in T175 Human fibronectin/collagen/bovine serum albumin coated flasks. […] Plates were incubated for 24 hours at 37° C., 5% CO2.
All compounds were initially solubilized in 100% DMSO. This dosing scheme contained 32 compounds per plate. Stock plates were prepared using 1 μl aliquots of 100× compound/well (30 mM-0.058 mM). The plates were prepared for dosing by adding 99 μl of cell culture media and mixing. Test compounds were added to cell culture plates by aspirating overnight culture media and replacing with 25 μL/well of media containing test compound using the layout outlined below. The final concentration of DMSO in each well was 1.0%. […] The ATP concentration was determined by reading luminescence using a Wallac Envision plate reader (Perkin Elmer, Waltham, Mass., USA). Percent of viable cells relative to no-drug treated controls was determined for each well.

The test system of series [4] is isolated rat mitochondria. The experiment in a line: Respirometric screening technology (RST) assay. The series is classed as biochemical. Particulars: for RST inhibitory: inhibition of oxidative phosphorylation. The procedure:
Respirometric Screening Technology (RST) Assay:
This assay was carried out substantially as described in Hynes et al. Toxicological Sciences 91(1), 186-200 (2006). More specifically, the assay conditions were similar to those described for the “Fluorescence-based assay of mitochondrial respiration” at page 188-189 of the Hynes reference.
Mitochondrial dysfunction has also been noted as a characteristic feature of many chronic illnesses, including bipolar disorder, Parkinson's disease, schizophrenia, depression, autism, and chronic fatigue syndrome (Morris 2015). Mitochondrial dysfunction can be assessed by measuring mitochondrial oxygen consumption in isolated rat mitochondria using luminescent oxygen-sensitive probes in a respirometric screening technology (RST) assay (Hynes 2006); both inhibition and uncoupling of oxidative phosphorylation in the RST assay were measured for compounds in Table 23.

A short description of series [5]: Shake flask Log D (SFLogD) determination, pH 7.4. The series is classed as physicochemical. The settings on record: for logD: shake flask, octan-1-ol / 0.1 M sodium phosphate buffer. The procedure:
Shake Flask Log D (SF Log D) Determination:
The Log D determinations were carried out in a similar manner as described by Hay et al. Drug Metabolism and Disposition 37(9), 1864-1870, 2009, the procedure of which is generally described below.
Log D(7.4) Determination. The distribution coefficient of the test compounds between octan-1-ol and 0.1 M sodium phosphate buffer, pH 7.4, was determined by the shake flask methodology in an automated manner. 0.3 mg of compound was dissolved in 300 μL of octan-1-ol and aliquoted in duplicate into a 96-well block. Three hundred microliters of presaturated buffer (2 liters of buffer presaturated with 10 mL of octan-1-ol) was added to the wells, and the solution was vigorously mixed. After centrifugation, the two phases were separated. Ten microliters of a 1:200 dilution of the octan-1-ol layer and 10 μL of a 1:20 dilution of the buffer layer were directly injected onto the high-performance liquid chromatography (HPLC) (for example using an appropriate C18 column, isocratic elution with 90% methanol, 10% water, 2 mM ammonium acetate, and 0.03% formic acid at flow rate of 2 mL/min). The peak areas were corrected for the dilution factors, and the following calculation was applied to determine the mean log D value at pH 7.4 (log D(7.4)): […]

[6] abbreviates: Table 20, radioligand binding, read-out: hKOR binding assay Ki.
The mark [7] stands for this setting: THLE-2, ATP cell viability, 72 hours.
The mark [8] stands for this setting: Table 19, geometric mean of 2-6 determinations unless otherwise indicated (Example 3: >=7), read-out: hKOR binding assay Ki.
[9] abbreviates: radioligand binding, [3H]diprenorphine, read-out: hKOR Ki.
The mark [10] stands for this setting: Table 19, geometric mean of 2-6 determinations unless otherwise indicated (Example 3: >=7).

Usually Ki stands for the dissociation constant of the complex between target and ligand, obtained from inhibition or displacement. By logD is commonly meant the decadic logarithm of the distribution of all forms, ionised or not, between an organic phase and buffer at a given pH. High values mean higher lipophilicity, low ones lower lipophilicity.

Where two headings read alike, the source gives them in different places.

T1 sequence (P41145 whole entry): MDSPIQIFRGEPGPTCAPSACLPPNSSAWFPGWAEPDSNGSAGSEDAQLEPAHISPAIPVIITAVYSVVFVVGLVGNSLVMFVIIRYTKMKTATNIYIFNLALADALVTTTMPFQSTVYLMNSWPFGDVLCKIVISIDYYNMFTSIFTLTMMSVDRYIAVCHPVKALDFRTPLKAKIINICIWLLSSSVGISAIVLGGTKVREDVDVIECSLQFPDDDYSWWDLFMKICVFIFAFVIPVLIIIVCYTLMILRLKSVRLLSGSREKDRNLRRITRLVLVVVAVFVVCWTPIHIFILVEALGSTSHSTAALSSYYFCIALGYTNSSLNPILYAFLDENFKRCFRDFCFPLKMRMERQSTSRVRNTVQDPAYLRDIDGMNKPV

`Cc1cc(C)cc([C@@H]2CCCN2Cc2ccc(Oc3ccc(C(N)=O)cc3F)cc2)c1` [Comparator E, reference compound]: the Ki in series [1] (setting [6]) was 0.2 nM. Also, the “Selectivity hMOR/hKOR” value in series [1] is reported as 39. Further, the Ki in series [2] (Table 20, radioligand binding) is 7.8 nM. Moreover, in series [3] (72 hours), the “cytotoxicity in THLE cell line, in words” value was “cytotoxicity at lower concentrations”. The IC50 in series [3] (setting [7]) was 26000 nM. In series [4], the “activity in the RST assay (inhibition / uncoupling of oxidative phosphorylation), in words” value was “μM inhibitory activity” and the RST inhibitory was found to be 19 µM. In addition, in series [5], the “Log D, in words” value is listed as “significantly higher Log D values” and the logD worked out at 4.6.

In the case of `NC(=O)c1ccc(Oc2ccc(CN3CCCC3c3cccnc3)cc2)c(Cl)c1` (centres unmarked) [Comparator C], the Ki in series [1] (setting [6]) was 1.2 nM. The “Selectivity hMOR/hKOR” value in series [1] is recorded as 17. The Ki in series [2] (Table 20, radioligand binding) came to 21 nM. Besides, in series [3] (setting [7]), the IC50 is 177000 nM. Also, in series [4], the “activity in the RST assay (inhibition / uncoupling of oxidative phosphorylation), in words” value is “μM inhibitory activity” and the RST inhibitory was 21 µM. The logD in series [5] amounted to 3.2.

Consider `NC(=O)c1ccc(Oc2ccc(CN3CCC[C@H]3c3cccc(F)c3)cc2)c(F)c1` [Comparator F], for which the Ki in series [1] (hKOR binding assay Ki, Table 20, radioligand binding) came out at 1.1 nM; in series [2] (Table 20, radioligand binding), 37.5 nM. The “Selectivity hMOR/hKOR” value in series [1] was 35. Also, in series [3] (72 hours), the “cytotoxicity in THLE cell line, in words” value was “cytotoxicity at lower concentrations”. Further, the IC50 in series [3] (THLE-2, 72 h) came to 37000 nM. The same molecule had an RST inhibitory in series [4] of 66 µM. Besides, in series [5], the “Log D, in words” value is on record as “significantly higher Log D values”. The logD in series [5] was 3.7.

Regarding `COc1nn(C)cc1[C@@H]1CCCN1Cc1ccc(Oc2ccc(C(N)=O)cc2)cc1` (single isomer, unassigned) [Example 12], the “selectivity for KOR over MOR, in words” value in series [1] was “more selective than the phenyl examples, Comparators A and B”. The Ki in series [1] (setting [8]) was 1.47 nM; in series [1] (setting [6]), 1.5 nM; in series [1] (setting [9]), 1 to 3 nM; in series [2] (setting [10]), 46.2 nM; in series [2] (Table 20, radioligand binding) it was 46 nM. The “Selectivity hMOR/hKOR” value in series [1] was 31. For the same molecule, the “cytotoxicity in THLE cell line, in words” value in series [3] (72 hours) is recorded as “little to no cytotoxicity”. Further, the IC50 in series [3] (setting [7]) was over 300000 nM. Also, the “activity in the RST assay (inhibition / uncoupling of oxidative phosphorylation), in words” value in series [4] is “no significant activity”. For the same molecule, the RST inhibitory entry in series [4] is listed as “No effect”. Moreover, in series [5], the “Log D, in words” value is listed as “much more in line with drugs that progress to Phase II”. Further, in series [5], the logD turned out to be 1.4.

On to `NC(=O)c1ccc(Oc2ccc(CN3CCCCC3c3ccccc3)cc2)nc1` (centres unmarked) [Comparator B], for which, in series [3] (setting [7]), the IC50 was 224000 nM. Moreover, the RST inhibitory result in series [4] is on record as “No effect”. Moreover, the logD in series [5] amounted to 2.7.

`Cc1nn(C)cc1[C@@H]1CCCN1Cc1ccc(Oc2ccc(C(N)=O)cc2)cc1` [Example 11, 4-(4-{[(2S)-2-(1,3-Dimethyl-1H-pyrazol-4-yl)pyrrolidin-1-yl]methyl}phenoxy)benzamide]: in series [1], the “selectivity for KOR over MOR, in words” value was “more selective than the phenyl examples, Comparators A and B”. Moreover, the Ki in series [1] (setting [8]) was 1.21 nM; in series [1] (setting [6]) it was 1.2 nM; in series [1] (setting [9]) it was 1 to 3 nM; in series [2] (setting [10]), 51 nM; in series [2] (Table 20, radioligand binding), 51 nM. Also, the “Selectivity hMOR/hKOR” value in series [1] is 42. For the same molecule, the “cytotoxicity in THLE cell line, in words” value in series [3] (72 hours) is “little to no cytotoxicity”. Further, the IC50 in series [3] (THLE-2, 72 h) was over 300000 nM. Further, in series [4], the “activity in the RST assay (inhibition / uncoupling of oxidative phosphorylation), in words” value was “no significant activity”. Further, in series [4], the RST inhibitory result is on record as “No effect”. Besides, the “Log D, in words” value in series [5] is reported as “much more in line with drugs that progress to Phase II”. The same molecule came in with a logD in series [5] of 1.9.

As to `NC(=O)c1ccc(Oc2ccc(CN3CCCC3c3ccccc3)cc2)nc1` (centres unmarked) [Comparator D], the Ki amounted to 5.8 nM in series [1] (setting [6]) and 163 nM in series [2] (Table 20, radioligand binding). Further, the “Selectivity hMOR/hKOR” value in series [1] is recorded as 28. The IC50 in series [3] (THLE-2, 72 h) came to 179000 nM. Besides, the RST inhibitory entry in series [4] is recorded as “No effect”. Further, the logD in series [5] was 2.3.

In the case of `NC(=O)c1ccc(Oc2ccc(CN3CCC(c4ccccc4)C3)cc2)nc1` (centres unmarked) [Comparator A, reference compound], the Ki in series [1] (setting [6]) stood at 3.1 nM; in series [2] (Table 20, radioligand binding) it was 0.1 nM. Moreover, in series [1], the “Selectivity hMOR/hKOR” value was 0.03. Moreover, in series [3] (setting [7]), the IC50 is over 300000 nM. Further, in series [5], the logD was 1.8.

For the molecule `COc1nn(C)cc1C1CCCN1Cc1ccc(Oc2ccc(C(N)=O)cc2F)cc1` (single isomer, unassigned; (-)) [Example 8, (−)-3-Fluoro-4-(4-{[2-(3-methoxy-1-methyl-1H-pyrazol-4-yl)pyrrolidin-1-yl]methyl}phenoxy)benzamide], in series [1], the “selectivity for KOR over MOR, in words” value is “more selective than the phenyl examples, Comparators A and B”. Further, the Ki in series [1] (setting [8]) is 2.56 nM; in series [1] (setting [6]), 2.6 nM; in series [1] (setting [9]) it was 1 to 3 nM; in series [2] (setting [10]) it was 98.7 nM; in series [2] (Table 20, radioligand binding), 99 nM. Further, the “Selectivity hMOR/hKOR” value in series [1] is given as 37. For the same molecule, the “cytotoxicity in THLE cell line, in words” value in series [3] (72 hours) is “little to no cytotoxicity”. Also, the IC50 in series [3] (setting [7]) was over 300000 nM. Further, the “activity in the RST assay (inhibition / uncoupling of oxidative phosphorylation), in words” value in series [4] is given as “no significant activity”. Moreover, the RST inhibitory entry in series [4] was “No effect”. Besides, the “Log D, in words” value in series [5] is given as “much more in line with drugs that progress to Phase II”. Besides, in series [5], the logD turned out to be 1.9.
